Measured values reported in the supplement of paper PMC6045584.
± gives the standard deviation of the averaged measurements.

Compound: CS(=O)(=O)c1ccc(C(=O)Nc2ccc(Cl)c(-c3ccccn3)c2)c(Cl)c1 [VISMODEGIB]
Experiment: surviving fraction relative to DMSO-only wells; higher = less growth inhibition
Details: exposure time: 5 days
How it was run: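 Viability was scored with CellTiter-Glo luminescence and normalised to the median of DMSO-only wells as surviving fraction. Beforehand, log-phase tumour cell lines were seeded at 250–500 cells per well in 384-well plates, allowed 24 hours, and exposed continuously for five days to inhibitors at 0.5, 1, 5, 10, 50, 100, 500 and 1000 nM. Only lines whose three screens gave replicate Pearson r >0.7 and median Z' >0.3 were kept.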

Test System | surviving fraction (0.5 nM) | surviving fraction (1 nM) | surviving fraction (5 nM) | surviving fraction (10 nM) | surviving fraction (50 nM) | surviving fraction (100 nM) | surviving fraction (500 nM) | surviving fraction (1000 nM)
MDAMB468 BREAST | 1.02 ± 0.064 | 0.927 ± 0.056 | 0.996 ± 0.058 | 0.957 ± 0.085 | 0.908 ± 0.083 | 1.02 ± 0.076 | 0.944 ± 0.065 | 0.955 ± 0.1
MCF7 BREAST | 0.898 ± 0.029 | 0.916 ± 0.059 | 0.874 ± 0.032 | 0.892 ± 0.097 | 0.883 ± 0.032 | 0.966 ± 0.043 | 0.913 ± 0.041 | 0.904 ± 0.037
HU09 BONE | 1.03 ± 0.079 | 0.973 ± 0.088 | 1.07 ± 0.14 | 1.08 ± 0.17 | 0.913 ± 0.04 | 0.898 ± 0.066 | 0.802 ± 0.036 | 0.886 ± 0.08
SYO1 SYNOVIAL | 0.953 ± 0.052 | 0.978 ± 0.049 | 0.992 ± 0.014 | 0.994 ± 0.054 | 0.879 ± 0.042 | 0.882 ± 0.041 | 0.884 ± 0.045 | 0.898 ± 0.048
S68 BREAST | 0.99 ± 0.087 | 0.839 ± 0.11 | 1.21 ± 0.25 | 1.04 ± 0.2 | 0.762 ± 0.19 | 0.917 ± 0.23 | 0.805 ± 0.12 | 0.621 ± 0.058
SKBR3 BREAST | 1.15 ± 0.085 | 0.954 ± 0.027 | 0.907 ± 0.059 | 0.975 ± 0.09 | 1.01 ± 0.068 | 0.896 ± 0.029 | 0.764 ± 0.026 | 0.774 ± 0.075
BT20 BREAST | 1.08 ± 0.13 | 0.977 ± 0.039 | 1.01 ± 0.062 | 1.02 ± 0.048 | 0.964 ± 0.086 | 0.901 ± 0.058 | 0.898 ± 0.032 | 0.907 ± 0.11
JIMT1 BREAST | 0.906 ± 0.044 | 0.89 ± 0.016 | 0.9112 ± 0.0064 | 0.948 ± 0.041 | 0.849 ± 0.035 | 0.972 ± 0.021 | 0.881 ± 0.053 | 0.952 ± 0.057
HCC1954 BREAST | 0.673 ± 0.096 | 0.637 ± 0.0088 | 0.72 ± 0.015 | 0.786 ± 0.03 | 0.768 ± 0.18 | 0.6402 ± 0.0025 | 0.618 ± 0.01 | 0.546 ± 0.025
VP229 BREAST | 1.27 ± 0.025 | 1.1 ± 0.065 | 1.15 ± 0.13 | 1.14 ± 0.082 | 0.972 ± 0.14 | 1.01 ± 0.017 | 1.15 ± 0.16 | 1.11 ± 0.014
NOS1 BONE | 1.09 ± 0.11 | 1.13 ± 0.13 | 1.1 ± 0.076 | 1.2 ± 0.065 | 0.926 ± 0.088 | 0.958 ± 0.049 | 0.819 ± 0.022 | 0.832 ± 0.04
SG31 HEADNECK | 0.965 ± 0.17 | 1.01 ± 0.2 | 0.946 ± 0.088 | 1.11 ± 0.22 | 0.783 ± 0.031 | 0.94 ± 0.054 | 0.834 ± 0.049 | 0.826 ± 0.091
OS25HAL BONE | 1 ± 0.014 | 1 ± 0.033 | 0.9983 ± 0.009 | 0.998 ± 0.017 | 0.967 ± 0.019 | 0.98 ± 0.005 | 1.01 ± 0.048 | 1.02 ± 0.054
22RV1 PROSTATE | 1.01 ± 0.061 | 1.04 ± 0.029 | 0.962 ± 0.013 | 0.974 ± 0.0072 | 0.924 ± 0.037 | 1.102 ± 0.0057 | 1.04 ± 0.022 | 1.09 ± 0.068
KPD BONE | 0.899 ± 0.045 | 0.946 ± 0.088 | 1.05 ± 0.078 | 1.01 ± 0.017 | 0.956 ± 0.012 | 1.05 ± 0.073 | 0.98 ± 0.039 | 0.933 ± 0.07
HUO3N1 BONE | 1.04 ± 0.04 | 0.976 ± 0.038 | 1.06 ± 0.061 | 1.03 ± 0.062 | 0.977 ± 0.025 | 0.962 ± 0.052 | 0.994 ± 0.03 | 0.901 ± 0.059
OSHN BONE | 1.01 ± 0.022 | 1.03 ± 0.019 | 1.05 ± 0.013 | 1.059 ± 0.0084 | 0.955 ± 0.021 | 0.991 ± 0.024 | 0.963 ± 0.031 | 0.989 ± 0.025
C33A CERVIX | 0.872 ± 0.066 | 1.007 ± 0.0076 | 1.12 ± 0.087 | 0.985 ± 0.061 | 0.879 ± 0.066 | 1 ± 0.069 | 0.851 ± 0.055 | 0.953 ± 0.066
SUM149 BREAST | 0.871 ± 0.11 | 0.856 ± 0.042 | 0.968 ± 0.053 | 0.877 ± 0.0066 | 0.904 ± 0.1 | 0.887 ± 0.014 | 0.945 ± 0.088 | 0.895 ± 0.077
ASKA SYNOVIAL | 1.04 ± 0.03 | 1.07 ± 0.046 | 1.08 ± 0.086 | 1.11 ± 0.039 | 0.939 ± 0.03 | 0.964 ± 0.05 | 0.926 ± 0.048 | 0.951 ± 0.055
SIHA CERVIX | 0.961 ± 0.024 | 1.08 ± 0.038 | 1.03 ± 0.045 | 1.06 ± 0.025 | 0.923 ± 0.044 | 0.993 ± 0.12 | 0.895 ± 0.097 | 0.991 ± 0.064
SUM159 BREAST | 1.14 ± 0.23 | 1.12 ± 0.17 | 1.14 ± 0.22 | 1.15 ± 0.22 | 1.06 ± 0.12 | 1.08 ± 0.084 | 1.12 ± 0.2 | 1.11 ± 0.14
HOS BONE | 1 ± 0.013 | 1.01 ± 0.015 | 1.012 ± 0.0066 | 1.03 ± 0.026 | 0.991 ± 0.026 | 1.03 ± 0.05 | 1.01 ± 0.029 | 1.01 ± 0.079
LM7 BONE | 0.92 ± 0.055 | 0.955 ± 0.02 | 1.56 ± 1 | 1.03 ± 0.037 | 0.865 ± 0.01 | 0.909 ± 0.067 | 0.849 ± 0.067 | 0.86 ± 0.085
